The values below come from patent US8173652B2, “Isoxazole-isoxazoles and isoxazole-isothiazoles” (Hoffmann-La Roche Inc., priority 2009, dated 2012).

In this test the target is T1, human GABA A receptor α5β3γ2 (Homo sapiens, UniProt P18507+P31644).
T1 construct: expressed in transfected cells; host or cells: HEK293 (transiently transfected), membrane preparation
The test can be described thus: [3H]flumazenil competition binding assay, human GABA A α5 receptor. The following applies: human α5β3γ2 receptors transiently transfected in HEK293 cells; displacement of [3H]flumazenil 0.5 nM; 1 hour at 4° C.; means of two determinations; read-out: hKi GABA A α5. The method, then:
Membrane Preparation and Binding Assay
The affinity of compounds at GABA A receptor subtypes was measured by competition for [3H]flumazenil (85 Ci/mmol; Roche) binding to HEK293 cells expressing rat (stably transfected) or human (transiently transfected) receptors of composition α1β3γ2, α2β3γ2, α3β3γ2 and α5β3γ2.
Cell pellets were suspended in Krebs-tris buffer (4.8 mM KCl, 1.2 mM CaCl2, 1.2 mM MgCl2, 120 mM NaCl, 15 mM Tris; pH 7.5; binding assay buffer), homogenized by polytron for ca. 20 sec on ice and centrifuged for 60 min at 4° C. (50000 g; Sorvall, rotor: SM24=20000 rpm). The cell pellets were re-suspended in Krebs-tris buffer and homogenized by polytron for ca. 15 sec on ice. Protein was measured (Bradford method, Bio-Rad) and aliquots of 1 mL were prepared and stored at −80° C.
Radioligand binding assays were carried out in a volume of […] (96-well plates) which contained […] of cell membranes, [^3H]flumazenil at a concentration of 1 nM for α1, α2 and α3 subunits and 0.5 nM for α5 subunits and the test compound in the range of […]. Nonspecific binding was defined by 10^−5 M diazepam and typically represented less than 5% of the total binding. Assays were incubated to equilibrium for 1 hour at 4° C. and harvested onto GF/C uni-filters (Packard) by filtration using a Packard harvester and washing with ice-cold wash buffer (50 mM Tris; pH 7.5). After drying, filter-retained radioactivity was detected by liquid scintillation counting. Ki values were calculated using Excel-Fit (Microsoft) and are the means of two determinations.
Background: In a radioligand displacement assay an active substance lowers the binding of a labelled ligand.

As to `CCCCc1noc(C)c1/C=C/c1cc(C(=O)NCCO)on1` [Example 1, 3-[(E)-2-(3-Butyl-5-methyl-isoxazol-4-yl)-vinyl]-isoxazole-5-carboxylic acid (2-hydroxy-ethyl)-amide], the Ki turned out to be 0.0286 µM.
The value for `Cc1onc(-c2ccccc2)c1COc1cc(C(=O)NN2CCCC2)on1` [Example 12, 3-(5-Methyl-3-phenyl-isoxazol-4-ylmethoxy)-isoxazole-5-carboxylic acid pyrrolidin-1-yl-amide] was 0.0185 µM; that for `Cc1onc(-c2ccccn2)c1COc1cc(C(=O)NC(C)C)on1` [Example 14, 3-(5-Methyl-3-pyridin-2-yl-isoxazol-4-ylmethoxy)-isoxazole-5-carboxylic acid isopropyl-amide] was 0.0025 µM; that for `CCCCc1noc(C)c1COc1cc(C(=O)NC2CCOC2)on1` (single isomer, unassigned) [Example 30, (R or S)-3-(3-Butyl-5-methyl-isoxazol-4-ylmethoxy)-isoxazole-5-carboxylic acid (tetrahydro-furan-3-yl)-amide] was 0.0065 µM.
Turning to `Cc1onc(-c2ccc(F)cn2)c1COc1cc(C(=O)NC(C)C)sn1` [Example 38, 3-[3-(5-Fluoro-pyridin-2-yl)-5-methyl-isoxazol-4-ylmethoxy]-isothiazole-5-carboxylic acid isopropylamide], the Ki worked out at 0.0118 µM.
In the case of `CCCCc1noc(C)c1COc1cc(C(=O)NC(C)C)on1` [Example 28, 3-(3-Butyl-5-methyl-isoxazol-4-ylmethoxy)-isoxazole-5-carboxylic acid isopropylamide] it was 0.0246 µM; in that of `CCCCc1noc(C)c1COc1cc(C(=O)NN2CCOCC2)on1` [Example 33, 3-(3-Butyl-5-methyl-isoxazol-4-ylmethoxy)-isoxazole-5-carboxylic acid morpholin-4-ylamide], 0.0104 µM; in that of `Cc1onc(-c2ccccc2)c1COc1cc(C(=O)NN2CCCCC2)on1` [Example 11, 3-(5-Methyl-3-phenyl-isoxazol-4-ylmethoxy)-isoxazole-5-carboxylic acid piperidin-1-yl-amide], 0.0138 µM.
The value for `Cc1onc(-c2ccccn2)c1COc1cc(C(=O)NCCO)sn1` [Example 37, 3-(5-Methyl-3-pyridin-2-yl-isoxazol-4-ylmethoxy)-isothiazole-5-carboxylic acid (2-hydroxy-ethyl)-amide] was 0.0176 µM; that for `Cc1onc(-c2ccccc2)c1COc1cc(C(=O)NC(C)CO)on1` (single isomer, unassigned) [Example 9, (S or R)-3-(5-Methyl-3-phenyl-isoxazol-4-ylmethoxy)-isoxazole-5-carboxylic acid (2-hydroxy-1-methyl-ethyl)-amide] was 0.0231 µM.
Regarding `Cc1onc(-c2ccccn2)c1COc1cc(C(=O)NN(C)C)on1` [Example 18, 3-(5-Methyl-3-pyridin-2-yl-isoxazol-4-ylmethoxy)-isoxazole-5-carboxylic acid N′,N′-dimethyl-hydrazide], the Ki was 0.0089 µM.
In the case of `Cc1onc(-c2ccccc2)c1COc1cc(C(=O)NN2CCOCC2)on1` [Example 13, 3-(5-Methyl-3-phenyl-isoxazol-4-ylmethoxy)-isoxazole-5-carboxylic acid morpholin-4-ylamide] it was 0.0028 µM.
On to `CCCCc1noc(C)c1COc1cc(C(=O)NC2CCOC2)on1` (centres unmarked) [Example 29, 3-(3-Butyl-5-methyl-isoxazol-4-ylmethoxy)-isoxazole-5-carboxylic acid (tetrahydro-furan-3-yl)-amide], for which the Ki turned out to be 0.0085 µM.
`O=C(NC1CCOCC1)c1cc(OCc2c(-c3ccc(F)cc3)noc2CO)no1` [Example 44, 3-[3-(4-Fluoro-phenyl)-5-hydroxymethyl-isoxazol-4-ylmethoxy]-isoxazole-5-carboxylic acid (tetrahydro-pyran-4-yl)-amide]: the Ki stood at 0.0028 µM.
Regarding `Cc1onc(-c2ccccn2)c1COc1cc(C(=O)NCC(F)(F)F)on1` [Example 17, 3-(5-Methyl-3-pyridin-2-yl-isoxazol-4-ylmethoxy)-isoxazole-5-carboxylic acid (2,2,2-trifluoro-ethyl)-amide], the Ki is 0.0023 µM.
For the compound `CC(=O)OCCNC(=O)c1cc(OCc2c(-c3ccccc3)noc2C)no1` [Example 7, Acetic acid 2-{[3-(5-methyl-3-phenyl-isoxazol-4-ylmethoxy)-isoxazole-5-carbonyl]-amino}-ethyl ester], the Ki amounted to 0.0168 µM.
The value for `Cc1onc(-c2ccccc2)c1COc1cc(C(=O)NC2CCOC2)on1` (centres unmarked) [Example 4, 3-(5-Methyl-3-phenyl-isoxazol-4-ylmethoxy)-isoxazole-5-carboxylic acid (tetrahydro-furan-3-yl)-amide] was 0.0044 µM; that for `CCCCc1noc(C)c1COc1cc(C(=O)NCCO)on1` [Example 24, 3-(3-Butyl-5-methyl-isoxazol-4-ylmethoxy)-isoxazole-5-carboxylic acid (2-hydroxy-ethyl)-amide] was 0.0222 µM.
In the case of `CCCCc1noc(C)c1COc1cc(C(=O)N[C@H](C)CO)on1` [Example 27, 3-(3-Butyl-5-methyl-isoxazol-4-ylmethoxy)-isoxazole-5-carboxylic acid ((R)-2-hydroxy-1-methyl-ethyl)-amide] it was 0.038 µM.
In the case of `Cc1onc(-c2ccccc2)c1COc1cc(C(=O)NC(C)CO)on1` (single isomer, unassigned) [Example 8, (R or S)-3-(5-Methyl-3-phenyl-isoxazol-4-ylmethoxy)-isoxazole-5-carboxylic acid (2-hydroxy-1-methyl-ethyl)-amide] it was 0.0135 µM; in that of `CCCCc1noc(C)c1COc1cc(C(=O)NN(C)C)on1` [Example 32, 3-(3-Butyl-5-methyl-isoxazol-4-ylmethoxy)-isoxazole-5-carboxylic acid N′,N′-dimethyl-hydrazide], 0.0568 µM; in that of `Cc1onc(-c2ccc(F)cn2)c1COc1cc(C(=O)NCCO)on1` [Example 23, 3-[3-(5-Fluoro-pyridin-2-yl)-5-methyl-isoxazol-4-ylmethoxy]-isoxazole-5-carboxylic acid (2-hydroxy-ethyl)-amide], 0.0022 µM.
Take `CCCCc1noc(C)c1COc1cc(C(=O)NC(C)CO)on1` (centres unmarked) [Example 25, 3-(3-Butyl-5-methyl-isoxazol-4-ylmethoxy)-isoxazole-5-carboxylic acid (2-hydroxy-1-methyl-ethyl)-amide]: the Ki worked out at 0.0277 µM.
The value for `Cc1onc(-c2ccccc2)c1COc1cc(C(=O)NC(C)C)sn1` [Example 34, 3-(5-Methyl-3-phenyl-isoxazol-4-ylmethoxy)-isothiazole-5-carboxylic acid isopropylamide] was 0.028 µM.
Consider `Cc1onc(-c2ccc(F)cn2)c1COc1cc(C(=O)NCCO)sn1` [Example 39, 3-[3-(5-Fluoro-pyridin-2-yl)-5-methyl-isoxazol-4-ylmethoxy]-isothiazole-5-carboxylic acid (2-hydroxy-ethyl)-amide], for which the Ki was found to be 0.013 µM.
In the case of `CCCCc1noc(C)c1COc1cc(C(=O)NC2CCOC2)on1` (single isomer, unassigned) [Example 31, (S or R)-3-(3-Butyl-5-methyl-isoxazol-4-ylmethoxy)-isoxazole-5-carboxylic acid (tetrahydro-furan-3-yl)-amide] it was 0.0028 µM.
With `CCCCc1noc(C)c1COc1cc(C(=O)NC2CCOC2)sn1` (centres unmarked) [Example 41, 3-(3-Butyl-5-methyl-isoxazol-4-ylmethoxy)-isothiazole-5-carboxylic acid (tetrahydro-furan-3-yl)-amide], the Ki was 0.0289 µM.
In the case of `Cc1onc(-c2ccccc2)c1COc1cc(C(=O)NCCO)on1` [Example 5, 3-(5-Methyl-3-phenyl-isoxazol-4-ylmethoxy)-isoxazole-5-carboxylic acid (2-hydroxy-ethyl)-amide] it was 0.008 µM.
The value for `O=C(NCC(F)(F)F)c1cc(OCc2c(-c3ccc(F)cc3)noc2CO)no1` [Example 45, 3-[3-(4-Fluoro-phenyl)-5-hydroxymethyl-isoxazol-4-ylmethoxy]-isoxazole-5-carboxylic acid (2,2,2-trifluoro-ethyl)-amide] was 0.01 µM.
Consider `Cc1onc(-c2ccc(F)cn2)c1COc1cc(C(=O)NC(C)C)on1` [Example 22, 3-[3-(5-Fluoro-pyridin-2-yl)-5-methyl-isoxazol-4-ylmethoxy]-isoxazole-5-carboxylic acid isopropylamide], for which the Ki came to 0.0017 µM.
The value for `Cc1onc(-c2ccc(F)cc2)c1COc1cc(C(=O)N2CC3(COC3)C2)on1` [Example 42, {3-[3-(4-Fluoro-phenyl)-5-methyl-isoxazol-4-ylmethoxy]-isoxazol-5-yl}-(2-oxa-6-aza-spiro[3.3]hept-6-yl)-methanone] was 0.0098 µM; that for `Cc1onc(-c2ccccn2)c1COc1cc(C(=O)NC2CCOC2)on1` (centres unmarked) [Example 16, 3-(5-Methyl-3-pyridin-2-yl-isoxazol-4-ylmethoxy)-isoxazole-5-carboxylic acid (tetrahydro-furan-3-yl)-amide] was 0.0014 µM.
